Experimental data published in ChEMBL document CHEMBL2203143, “Synthesis and antiproliferative activities of ottelione a analogues” (ACS Med Chem Lett, 2012).
Active and inactive are the calls of the source. The rule behind the calls is not given here.

Tests used:
HCT-116 = experiment: Antiproliferative activity against human HCT116 cells assessed as cell viability after 72 hrs by CellTiter96 assay; assay type: functional, cell-based; settings: HCT-116, 72 h
KB = experiment: Antiproliferative activity against human KB cells assessed as cell viability after 72 hrs by CellTiter96 assay; assay type: functional, cell-based
A-375 = experiment: Antiproliferative activity against human A375 cells assessed as cell viability after 72 hrs by CellTiter96 assay; assay type: functional, cell-based; settings: A-375, 72 h
Tubulin (Sus scrofa) [1] = biological target: T1, Tubulin (Sus scrofa) (UniProt P02554+P02550); experiment: Displacement of [3H]colchicine from tubulin in pig brain at 10 uM after 16 hrs by scintillation proximity assay
MCF7 [2] = experiment: Antiproliferative activity against human MCF7 cells assessed as cell viability after 72 hrs by CellTiter96 assay; assay type: functional, cell-based; settings: MCF7, 72 h
NCI-H460 [3] = experiment: Antiproliferative activity against human NCI-H460 cells assessed as cell viability after 72 hrs by CellTiter96 assay; assay type: functional, cell-based; settings: NCI-H460, 72 h
COLO 205 [4] = experiment: Antiproliferative activity against human COLO205 cells assessed as cell viability after 72 hrs by CellTiter96 assay; assay type: functional, cell-based; settings: COLO 205, 72 h
COLO 205 [5] = experiment: Ratio of ottelione A IC50 to compound IC50 for human COLO205 cells after 72 hrs by CellTiter96 assay; assay type: functional
MCF7 [6] = experiment: Ratio of ottelione A IC50 to compound IC50 for human MCF7 cells after 72 hrs by CellTiter96 assay; assay type: functional
NCI-H460 [7] = experiment: Ratio of ottelione A IC50 to compound IC50 for human NCI-H460 cells after 72 hrs by CellTiter96 assay; assay type: functional
Tubulin (Sus scrofa) [8] = biological target: T1, Tubulin (Sus scrofa); experiment: Inhibition of pig neuronal tubulin polymerization at 10 uM by fluorescence analysis; assay type: protein assay

T1 sequence (P02550 whole entry, looked up): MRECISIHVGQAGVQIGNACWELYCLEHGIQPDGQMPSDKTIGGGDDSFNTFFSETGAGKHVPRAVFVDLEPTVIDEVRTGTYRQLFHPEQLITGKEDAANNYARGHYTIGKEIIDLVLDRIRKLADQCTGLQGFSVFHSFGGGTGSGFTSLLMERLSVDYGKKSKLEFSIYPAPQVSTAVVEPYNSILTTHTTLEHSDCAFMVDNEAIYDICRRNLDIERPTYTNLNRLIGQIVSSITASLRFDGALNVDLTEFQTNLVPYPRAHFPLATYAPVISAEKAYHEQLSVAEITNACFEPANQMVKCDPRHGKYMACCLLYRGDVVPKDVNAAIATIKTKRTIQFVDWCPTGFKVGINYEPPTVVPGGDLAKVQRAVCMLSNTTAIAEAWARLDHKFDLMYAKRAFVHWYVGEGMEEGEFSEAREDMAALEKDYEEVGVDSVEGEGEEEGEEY
T1 sequence (P02554 whole entry, looked up): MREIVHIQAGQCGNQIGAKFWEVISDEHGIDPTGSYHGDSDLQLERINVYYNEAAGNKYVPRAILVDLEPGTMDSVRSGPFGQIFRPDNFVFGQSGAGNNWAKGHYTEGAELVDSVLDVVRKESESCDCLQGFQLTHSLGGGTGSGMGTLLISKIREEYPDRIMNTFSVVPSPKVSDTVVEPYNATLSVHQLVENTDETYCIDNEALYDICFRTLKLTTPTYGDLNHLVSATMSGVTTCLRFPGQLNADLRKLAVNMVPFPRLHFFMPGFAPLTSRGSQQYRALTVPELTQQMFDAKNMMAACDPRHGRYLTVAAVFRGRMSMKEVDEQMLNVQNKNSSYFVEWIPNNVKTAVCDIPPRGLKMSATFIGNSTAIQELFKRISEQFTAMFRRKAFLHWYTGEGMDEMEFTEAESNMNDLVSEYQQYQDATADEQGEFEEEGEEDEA

`C=C1C=CC(=O)[C@@H]2[C@H](Cc3ccc(OCOC)cc3)CC[C@H]12` (racemic) was tested, and the IC50 (HCT-116) was 129 nM, the IC50 (KB) was 208 nM and the IC50 (A-375) was 77.4 nM. It also gave an inhibition (Tubulin (Sus scrofa) [1]) of 69.3%, an IC50 (MCF7 [2]) of 63.6 nM and an IC50 (NCI-H460 [3]) of 226 nM. For the same compound, the IC50 (COLO 205 [4]) was 219 nM.

Compound `C=C1C=CC(=O)[C@@H]2[C@H](Cc3cc(OC)c(OC)c(OC)c3)CC[C@H]12` (racemic) has an IC50 (HCT-116) of over 1000 nM, an IC50 (KB) of over 1000 nM and an IC50 (A-375) of over 1000 nM. It also gave an inhibition (Tubulin (Sus scrofa) [1]) of 8.93%, an IC50 (MCF7 [2]) of over 1000 nM and an IC50 (NCI-H460 [3]) of over 1000 nM. The IC50 (COLO 205 [4]) was over 1000 nM.

Compound `C=C1C=CC(=O)[C@@H]2[C@H](Cc3ccc(OCOC)c(F)c3)CC[C@H]12` (racemic) has an IC50 (HCT-116) of 77.4 nM, an IC50 (KB) of 76.6 nM and an IC50 (A-375) of 40 nM. For the same compound, the inhibition (Tubulin (Sus scrofa) [1]) was 68.9%, the IC50 (MCF7 [2]) was 77.2 nM and the IC50 (NCI-H460 [3]) was 106 nM. It also gave an IC50 (COLO 205 [4]) of 75.7 nM.

`C=C1C=CC(=O)[C@@H]2[C@H](Cc3ccc(O)c(F)c3)CC[C@H]12` (racemic) was tested, and the IC50 (HCT-116) was 126 nM, the IC50 (KB) was 156 nM and the IC50 (A-375) was 98.4 nM. The inhibition (Tubulin (Sus scrofa) [1]) was 37.3%, the IC50 (MCF7 [2]) was 147 nM and the IC50 (NCI-H460 [3]) was 229 nM. The IC50 (COLO 205 [4]) was 3000 nM.

Work on `C=C1C=CC(=O)[C@@H]2[C@H](Cc3ccc(F)c(F)c3)CC[C@H]12` (racemic) yielded an IC50 (HCT-116) of 235 nM, an IC50 (KB) of 478 nM and an IC50 (A-375) of 222 nM. For the same compound, the inhibition (Tubulin (Sus scrofa) [1]) was 61.7%, the IC50 (MCF7 [2]) was 233 nM and the IC50 (NCI-H460 [3]) was 511 nM. For the same compound, the IC50 (COLO 205 [4]) was 428 nM.

For `C=C1C=CC(=O)[C@@H]2[C@H](Cc3ccc(OC)c(F)c3)CC[C@H]12` (racemic), the “Ratio IC50” value (COLO 205 [5]) was 6, the IC50 (HCT-116) was 1.11 nM and the IC50 (KB) was 2.77 nM. The “Ratio IC50” value (MCF7 [6]) was 6, the “Ratio IC50” value (NCI-H460 [7]) was 6 and the IC50 (A-375) was 1.68 nM. The inhibition (Tubulin (Sus scrofa) [1]) was 97.1%, the IC50 (MCF7 [2]) was 0.13 nM and the inhibition (Tubulin (Sus scrofa) [8]) was “Active”. For the same compound, the IC50 (NCI-H460 [3]) was 2.62 nM and the IC50 (COLO 205 [4]) was 2.45 nM.

In the case of `C=C1C=CC(=O)[C@@H]2[C@H](Cc3ccc(OC)c(O)c3)CC[C@H]12` (racemic), the IC50 (HCT-116) is reported as 3.01 nM, the IC50 (KB) is reported as 4.94 nM and the IC50 (A-375) is reported as 1.07 nM. The inhibition (Tubulin (Sus scrofa) [1]) was 95.8%, the IC50 (MCF7 [2]) was 3.73 nM and the inhibition (Tubulin (Sus scrofa) [8]) was “Active”. The IC50 (NCI-H460 [3]) was 16 nM and the IC50 (COLO 205 [4]) was 244 nM.

Work on `COc1ccc(C[C@@H]2CC[C@@H]3CC=CC(=O)[C@@H]32)cc1O` (racemic) yielded an IC50 (HCT-116) of over 1000 nM, an IC50 (KB) of over 1000 nM and an IC50 (A-375) of 914 nM. For the same compound, the inhibition (Tubulin (Sus scrofa) [1]) was 39.2%, the IC50 (MCF7 [2]) was over 1000 nM and the IC50 (NCI-H460 [3]) was over 1000 nM. It also gave an IC50 (COLO 205 [4]) of over 1000 nM.

`CC=C1C=CC(=O)[C@@H]2[C@H](Cc3ccc(OC)c(O)c3)CC[C@H]12` (racemic) was tested, and the IC50 (HCT-116) was 14 nM, the IC50 (KB) was 22.6 nM and the IC50 (A-375) was 9.2 nM. It also gave an inhibition (Tubulin (Sus scrofa) [1]) of 96.1%, an IC50 (MCF7 [2]) of 26.3 nM and an IC50 (NCI-H460 [3]) of 24.6 nM. It also gave an IC50 (COLO 205 [4]) of 739 nM.

Compound `C=C1C=CC(=O)[C@@H]2[C@H](Cc3ccccc3)CC[C@H]12` (racemic) has an IC50 (HCT-116) of 257 nM, an IC50 (KB) of 591 nM and an IC50 (A-375) of 237 nM. For the same compound, the inhibition (Tubulin (Sus scrofa) [1]) was 43.2%, the IC50 (MCF7 [2]) was 260 nM and the IC50 (NCI-H460 [3]) was 678 nM. The IC50 (COLO 205 [4]) was 547 nM.

Work on `C=C1C=CC(=O)[C@@H]2[C@H](Cc3ccc(O)cc3)CC[C@H]12` (racemic) yielded an IC50 (HCT-116) of 38.5 nM, an IC50 (KB) of 68.8 nM and an IC50 (A-375) of 30.8 nM. The inhibition (Tubulin (Sus scrofa) [1]) was 71.6%, the IC50 (MCF7 [2]) was 33.8 nM and the IC50 (NCI-H460 [3]) was 77.6 nM. For the same compound, the IC50 (COLO 205 [4]) was 218 nM.

With `C=C[C@@H]1C[C@@H](Cc2ccc(OC)c(O)c2)[C@H]2C(=O)C=CC(=C)[C@H]21` (racemic) the IC50 (HCT-116) was 0.74 nM, the IC50 (KB) was 1.59 nM and the IC50 (A-375) was 0.4 nM. For the same compound, the inhibition (Tubulin (Sus scrofa) [1]) was 98.3%, the IC50 (MCF7 [2]) was 1.17 nM and the inhibition (Tubulin (Sus scrofa) [8]) was “Active”. It also gave an IC50 (NCI-H460 [3]) of 14.5 nM and an IC50 (COLO 205 [4]) of 92.8 nM.
